For data set [1], the system named is PDA tumors in KPC mice. In words: KPC intervention/survival study. The class given is in vivo. The note with it: KPC mice (FIGS. 9a, 9b). As to the method:
Tumor formation in KPC mice was monitored by weekly palpation until the detection of a mass. Upon positive palpation, the mass was monitored by twice weekly ultrasound until the tumor reached an enrollable size of 4-7 mm average diameter. Once enrollable, KPC mice were randomly enrolled into a treatment arm of the intervention study. Mice were treated with vehicle, Compound 1 (17 mg/kg, PO, b.i.w.), gemcitabine alone (100 mg/kg, IP, b.i.w.), or Compound 1+gemcitabine. Mice receiving Compound 1 also received gemcitabine vehicle (saline, IP, b.i.w.) at a volume (μL) of 50× body weight (g). Mice receiving gemcitabine also received Compound 1 vehicle (0.5% hydroxypropylmethylcellulose with 0.1% Tween80 (w/v), PO, b.i.w.) at a volume (μL) of 5.7× body weight (g). All drug and vehicle combinations were administered simultaneously.
Tumor ultrasonography and volume quantification were carried out as described in Sastra S A, Olive K P, Quantification of murine pancreatic tumors by high-resolution ultrasound, Methods Mol Biol 2013; 980:249-66. […]
To prepare samples for immunohistochemistry, tissues were first fixed overnight in 10% phosphate-buffered formalin and then stored in 70% ethanol for long-term storage. […] Next, antigen retrieval was carried out in an experimentally determined, antibody-specific antigen retrieval buffer (usually 10 mM citrate, pH 6.0 or 10 mM Tris, pH 10.0). […]

Data set [2] relates to advanced PDA. The note with it: cited from earlier work.
Data set [3] deals with T1, P-glycoprotein (Homo sapiens, UniProt P08183).
T1 construct: host or cells: MDCKII-mdr1 (canine kidney MDCKII cells; MDCKII-wt as control)
In words: P-glycoprotein substrate activity experiment (CC50 ratio MDCK-P-gp vs MDCK-WT). The class given is in vitro ADME. The following applies: 72 hours, CellTiter-Glo (FIG. 4b). As to the method:
MDCKII-mdr1 and MDCKII-wt cells were purchased from the Netherlands Cancer Institute, NKI-AVL. The cells were cultivated in Dulbecco's modified essential medium (DMEM), supplemented with 10% FBS and 1% Penn-Strep, and used between passage 3-9. Cells were seeded at a density of 3×10^3 cells/well in 96-well tissue culture treated plates. After 4 hours to allow cells to attach, cells were treated with test compound in the presence or absence of the P-glycoprotein inhibitor Valspodar. The plates were incubated at 37° C., 5% CO2 for 72 hours and ATP was measured vialuminescence using CellTiter-Glo® reagent (Promega). (FIG. 4b)

T1 sequence (P08183 whole entry): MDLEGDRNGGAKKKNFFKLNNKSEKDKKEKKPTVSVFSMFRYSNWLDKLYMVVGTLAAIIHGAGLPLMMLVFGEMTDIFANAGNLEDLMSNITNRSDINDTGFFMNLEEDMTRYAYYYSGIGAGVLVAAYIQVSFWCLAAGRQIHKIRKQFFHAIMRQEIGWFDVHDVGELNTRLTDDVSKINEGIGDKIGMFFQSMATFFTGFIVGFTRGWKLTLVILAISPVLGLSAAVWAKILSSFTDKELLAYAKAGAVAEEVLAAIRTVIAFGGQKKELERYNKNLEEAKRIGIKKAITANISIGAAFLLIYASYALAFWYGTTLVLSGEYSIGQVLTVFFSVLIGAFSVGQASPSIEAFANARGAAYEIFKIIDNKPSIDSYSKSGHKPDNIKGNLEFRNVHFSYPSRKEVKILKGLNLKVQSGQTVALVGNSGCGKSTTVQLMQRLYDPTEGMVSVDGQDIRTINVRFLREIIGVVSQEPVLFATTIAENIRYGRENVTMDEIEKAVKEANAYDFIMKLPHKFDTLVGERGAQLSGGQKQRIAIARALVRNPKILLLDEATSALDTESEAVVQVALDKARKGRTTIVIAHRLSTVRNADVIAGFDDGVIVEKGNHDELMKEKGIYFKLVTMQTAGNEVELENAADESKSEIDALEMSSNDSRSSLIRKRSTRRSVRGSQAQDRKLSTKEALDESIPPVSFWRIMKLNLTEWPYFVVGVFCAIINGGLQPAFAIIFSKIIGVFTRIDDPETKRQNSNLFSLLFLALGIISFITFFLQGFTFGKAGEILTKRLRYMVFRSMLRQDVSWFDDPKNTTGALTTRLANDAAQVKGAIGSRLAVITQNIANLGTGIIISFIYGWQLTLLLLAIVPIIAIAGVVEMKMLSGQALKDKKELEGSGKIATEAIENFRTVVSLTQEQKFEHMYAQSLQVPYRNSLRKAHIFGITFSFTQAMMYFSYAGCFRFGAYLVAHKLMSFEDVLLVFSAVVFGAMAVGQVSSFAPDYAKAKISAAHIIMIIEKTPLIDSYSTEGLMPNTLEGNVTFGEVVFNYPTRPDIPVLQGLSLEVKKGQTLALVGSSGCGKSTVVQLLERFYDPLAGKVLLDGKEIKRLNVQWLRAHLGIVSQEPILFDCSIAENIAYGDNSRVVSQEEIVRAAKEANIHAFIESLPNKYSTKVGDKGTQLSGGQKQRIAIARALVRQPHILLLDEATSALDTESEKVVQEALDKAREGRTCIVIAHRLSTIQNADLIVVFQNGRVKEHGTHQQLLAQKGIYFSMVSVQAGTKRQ

On to `Nc1ccn([C@@H]2O[C@H](CO)[C@@H](O)C2(F)F)c(=O)n1` [gemcitabine, reference compound], for which the “apoptotic cell population in stained tumor sections” value in data set [1] is “induced apoptotic cell population”. Besides, in data set [2] (national standard-of-care therapy), the extension of survival result was “modestly extends survival by a few weeks”.
With `CN(C)CCCN1c2ccccc2Sc2ccc(Cl)cc21` [chlorpromazine, reference compound], the “PGP substrate activity (ratio of CC50 values MDCK-P-gp vs MDCK-WT)” value in data set [3] is “do not function as a PGP substrate”.
Still for that read-out and setting: with `Cc1nc2cc(F)c(F)cc2n1-c1cncc(Nc2ccc(C(F)(F)F)cc2)n1` [Compound 2, 6-(5,6-difluoro-2-methyl-1H-benzo[d]imidazol-1-yl)-N-(4-(trifluoromethyl)phenyl)pyrazin-2-amine, reference compound] the entry was “do not function as a PGP substrate”.
Consider `C#Cc1cccc(Nc2ncnc3cc(OCCOC)c(OCCOC)cc23)c1` [Tarceva, erlotinib], for which the “additional survival benefit, average” value in data set [2] (when combined with gemcitabine) is recorded as 10 days.

The values above are taken from patent publication US12023335B2, “Method for treating pancreatic cancer” (PTC THERAPEUTICS, INC., priority 2018, dated 2024).
